Source: publication PMC10326281, “Insights into the mechanisms governing P01 scorpion toxin effect against U87 glioblastoma cells oncogenesis” (Frontiers in Pharmacology, 2023)
Values after ≈ are worked out from the molar mass of the structure shown. Where a SMILES comes first, the peptide text is derived from it. Bridges are numbered along the chain shown (N, C = ends).

Tests used:
[1] = tested on: MDA-MB231 breast cancer cells; assay: Cell migration assay (modified Boyden chamber), MDA-MB231; format: cell-based, human; conditions: 50 μg/mL, 5 h, fibronectin 10 μg/mL coating, n = 3
Description: (§1) The ATCC (American Type Culture Collection, Rockville, MD, United States) cancer cell lines U87 (glioblastoma), MDA-MB231 (breast cancer) and LS174 (colon adenocarcinoma) were routinely cultured in DMEM supplemented with 10% fœtal bovine serum (FBS), 1% l-glutamine and 100 IU/mL penicillin/streptomycin. […] Rat SK2 cDNA cloned into pJA5 plasmid was a gift from Dr. Skolnik (university Langone Medical center, New York). Human SK3 cDNA cloned into Pipru vector was a king gift from Pr. Soriani (Université Côte d’Azur, CNRS, Inserm, Nice, France).
(§2) Cell migration assay was performed using modified Boyden chamber (NeuroProbe Inc., Bethesda, MD, United States) as previously described ([Sarray et al., 2007]). Membranes were coated with fibrinogen (Fg) (50 μg/mL), fibronectin (Fn) (10 μg/mL), collagen type I (Coll-I) (50 μg/mL) for U87, MDA-MB231 and LS174 cells respectively, for 2 h at 37°C. Cells were harvested as a single cell suspension (10^6 cells/mL) and treated with P01 at 50 μg/mL. Then added to pre-coated membranes and allowed to migrate for 5 h at 37°C in Boyden chamber. Cells were fixed on the underside of the membrane, stained by 0.1% crystal violet and migration was quantified by measuring the absorbance at 560 nm using a spectrophotometer (Thermo-Multiskan EX, Shanghai, China).

U87 glioblastoma cells = assay: Cell migration assay (modified Boyden chamber), U87; format: cell-based, human
Description: as §1, §2

CC[C@H](C)[C@H](NC(=O)[C@@H]1CCCN1C(=O)[C@H](CCC(=O)O)NC(=O)[C@@H]1CSSC[C@@H]2NC(=O)[C@H](Cc3c[nH]cn3)NC(=O)[C@H](CCC(=O)O)NC(=O)[C@@H]3CCCN3C(=O)[C@@H]3CSSC[C@H](NC(=O)[C@H](CCCCN)NC(=O)[C@H](CC(=O)O)NC(=O)[C@H](CC(N)=O)NC(=O)[C@H](CC(=O)O)NC(=O)[C@H](CSSC[C@H](NC(=O)[C@H](CO)NC(=O)[C@@H](N)C(C)C)C(=O)N[C@@H](CCC(=O)O)C(=O)N[C@@H](CC(=O)O)C(=O)N3)NC(=O)[C@H](CCCCN)NC(=O)[C@H](C)NC(=O)[C@H](CCC(N)=O)NC(=O)[C@H](C)NC(=O)[C@H](CCCCN)NC(=O)[C@H](CCC(N)=O)NC(=O)[C@H]([C@@H](C)O)NC(=O)[C@H](CO)NC2=O)C(=O)N[C@@H](C(C)C)C(=O)N1)C(=O)O [P01] (H-VSCEDCPEHCSTQKAQAKCDNDKCVCEPI-OH; disulfide 3-19, 6-24, 10-26 (inferred); N-terminus and C-terminus assumed)
effect on migration [1]: no effect | inhibition of migration (U87 glioblastoma cells; 50 μg/mL, 5 h at 37°C, fibrinogen 50 μg/mL coating, n = 3): 48% | IC50 (migration) (U87 glioblastoma cells; Boyden chamber, 5 h): 50 µg/mL (≈ 15.7 µM)
